According to ChEMBL document CHEMBL4420080, “Inhibitors of sox18 protein activity for treating angiogenesis- and/or lymphangiogenesis-related diseases” (2018):
Active and inactive are the calls of the source. No cut-off for these calls is given here.

Assays:
[1] = target: D(1A) dopamine receptor (Homo sapiens) (UniProt P21728); assay: Inhibition of human dopamine D1 receptor at 10 uM relative to control
[2] = target: GABA-A receptor; anion channel (Rattus norvegicus) (UniProt O09028+P15431+P18506+P18508+P19969+P20236+P23574+P23576+P28471+P28473+P30191+P62813+P63079+P63138+Q91ZM7+Q9ES14); assay: Inhibition of rat GABAA channel muscimol binding site at 10 uM relative to control; assay type: protein-complex assay
[3] = target: Histone deacetylase 4 (Homo sapiens) (UniProt P56524); assay: Inhibition of human HDAC4 at 10 uM relative to control
Chain of Histone deacetylase 4 (Homo sapiens) (P56524 whole entry): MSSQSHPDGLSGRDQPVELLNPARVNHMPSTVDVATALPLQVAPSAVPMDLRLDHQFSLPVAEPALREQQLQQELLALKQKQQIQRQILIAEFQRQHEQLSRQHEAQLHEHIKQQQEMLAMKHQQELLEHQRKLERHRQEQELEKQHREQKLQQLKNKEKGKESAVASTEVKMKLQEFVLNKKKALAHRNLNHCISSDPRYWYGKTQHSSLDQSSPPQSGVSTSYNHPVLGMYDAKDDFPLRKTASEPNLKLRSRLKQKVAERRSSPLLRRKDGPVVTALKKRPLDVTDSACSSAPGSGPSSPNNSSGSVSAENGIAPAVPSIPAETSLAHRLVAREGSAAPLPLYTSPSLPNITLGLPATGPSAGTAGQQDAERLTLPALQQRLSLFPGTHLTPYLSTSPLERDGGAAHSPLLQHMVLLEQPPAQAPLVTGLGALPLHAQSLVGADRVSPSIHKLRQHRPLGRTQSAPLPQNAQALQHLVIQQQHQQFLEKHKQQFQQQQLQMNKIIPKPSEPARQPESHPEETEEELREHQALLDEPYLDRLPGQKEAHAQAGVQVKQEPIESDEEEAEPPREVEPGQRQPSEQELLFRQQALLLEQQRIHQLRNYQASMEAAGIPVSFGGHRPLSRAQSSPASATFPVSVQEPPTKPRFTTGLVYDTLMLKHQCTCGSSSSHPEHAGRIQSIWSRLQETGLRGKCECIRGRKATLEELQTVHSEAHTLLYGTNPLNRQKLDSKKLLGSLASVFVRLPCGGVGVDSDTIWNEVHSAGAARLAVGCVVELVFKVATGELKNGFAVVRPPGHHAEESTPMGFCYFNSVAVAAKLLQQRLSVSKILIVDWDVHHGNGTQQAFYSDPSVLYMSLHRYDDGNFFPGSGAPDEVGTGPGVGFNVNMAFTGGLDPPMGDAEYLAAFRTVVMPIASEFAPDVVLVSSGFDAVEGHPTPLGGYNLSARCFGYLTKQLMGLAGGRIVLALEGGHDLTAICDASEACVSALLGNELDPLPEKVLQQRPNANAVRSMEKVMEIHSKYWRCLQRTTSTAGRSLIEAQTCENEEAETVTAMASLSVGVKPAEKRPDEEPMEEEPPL

[4] = target: Protein c-Fos (Homo sapiens) (UniProt P01100); assay: Inhibition of c-FOS in HUVEC assessed as reduction of c-FOS transcriptional activity by genome-wide RNA-seq and ChlP-seq analysis; assay type: cell-based
Chain of Protein c-Fos (Homo sapiens) (P01100 whole entry): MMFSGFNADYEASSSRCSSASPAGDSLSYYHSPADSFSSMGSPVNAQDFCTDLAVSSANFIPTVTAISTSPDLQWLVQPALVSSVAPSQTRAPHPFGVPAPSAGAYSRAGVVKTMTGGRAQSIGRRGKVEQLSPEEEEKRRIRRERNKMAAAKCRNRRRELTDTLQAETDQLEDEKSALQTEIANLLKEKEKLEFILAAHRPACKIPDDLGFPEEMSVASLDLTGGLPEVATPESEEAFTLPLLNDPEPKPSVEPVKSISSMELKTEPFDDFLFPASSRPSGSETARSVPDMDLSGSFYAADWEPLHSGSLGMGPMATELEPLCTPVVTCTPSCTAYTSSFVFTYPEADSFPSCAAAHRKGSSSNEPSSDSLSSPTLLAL

[5] = target: Transcription factor Jun (Homo sapiens) (UniProt P05412); assay: Inhibition of c-JUN in HUVEC assessed as reduction of c-JUN transcriptional activity by genome-wide RNA-seq and ChlP-seq analysis; assay type: cell-based
Chain of Transcription factor Jun (Homo sapiens) (P05412 whole entry): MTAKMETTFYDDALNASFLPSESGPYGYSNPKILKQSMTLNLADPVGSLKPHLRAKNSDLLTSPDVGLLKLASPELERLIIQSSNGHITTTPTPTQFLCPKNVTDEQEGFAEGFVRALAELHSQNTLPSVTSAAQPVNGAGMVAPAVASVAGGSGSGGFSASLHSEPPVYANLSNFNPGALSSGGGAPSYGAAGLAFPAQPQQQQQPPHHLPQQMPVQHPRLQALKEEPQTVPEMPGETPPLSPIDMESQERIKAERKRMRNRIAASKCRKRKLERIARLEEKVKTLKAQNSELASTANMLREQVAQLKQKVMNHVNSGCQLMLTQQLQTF

Danio rerio [6] = assay: Induction of vascular phenotype changes in zebrafish larvae harboring fli1 a:eGFP,-6.5kdrl:mCherry assessed as induction of posterior cardinal vein enlargement with arteriovenous shunts and incomplete trunk circulation at 1.5 uM dosed starting from 16 hpf; assay type: functional, organism-based
Danio rerio [7] = assay: Induction of arterial and venous genes dys-regulation in zebrafish larvae harboring fli1 a:eGFP,-6.5kdrl:mCherry assessed as effect on cdh5 gene expression at 1.5 uM dosed starting from 16 hpf and measured at 24 and 48 hpf by qRT-PCR analysis; assay type: functional, organism-based
Danio rerio [8] = assay: Induction of arterial and venous genes dys-regulation in zebrafish larvae harboring fli1 a:eGFP,-6.5kdrl:mCherry assessed as effect on efnb2a gene expression at 1.5 uM dosed starting from 16 hpf and measured at 24 and 48 hpf by qRT-PCR analysis; assay type: functional, organism-based
Danio rerio [9] = assay: Induction of arterial and venous genes dys-regulation in zebrafish larvae harboring fli1 a:eGFP,-6.5kdrl:mCherry assessed as effect on notch1b gene expression at 1.5 uM dosed starting from 16 hpf and measured at 24 and 48 hpf by qRT-PCR analysis; assay type: functional, organism-based
Danio rerio [10] = assay: Induction of arterial and venous genes dys-regulation in zebrafish larvae harboring fli1 a:eGFP,-6.5kdrl:mCherry assessed as effect on […] gene expression at 1.5 uM dosed starting from 16 hpf and measured at 24 and 48 hpf by qRT-PCR analysis; assay type: functional, organism-based

Chain of D(1A) dopamine receptor (Homo sapiens) (P21728 whole entry): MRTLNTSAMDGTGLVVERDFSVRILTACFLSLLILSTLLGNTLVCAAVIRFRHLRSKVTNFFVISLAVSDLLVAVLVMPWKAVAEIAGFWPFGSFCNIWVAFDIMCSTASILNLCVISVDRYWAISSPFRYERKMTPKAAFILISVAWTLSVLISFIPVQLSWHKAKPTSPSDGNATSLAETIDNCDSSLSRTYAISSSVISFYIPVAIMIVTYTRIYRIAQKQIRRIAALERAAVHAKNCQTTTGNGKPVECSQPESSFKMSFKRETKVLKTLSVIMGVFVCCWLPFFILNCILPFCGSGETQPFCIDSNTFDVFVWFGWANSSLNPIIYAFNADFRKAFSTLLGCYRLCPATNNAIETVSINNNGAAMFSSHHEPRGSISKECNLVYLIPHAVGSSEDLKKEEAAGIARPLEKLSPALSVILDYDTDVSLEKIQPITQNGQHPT

inhibition [1]: 12%
inhibition [2]: 6%
inhibition [3]: 5.1%
inhibition [4]: inactive
inhibition [5]: inactive
SMILES: O=C(O)c1c(O)cccc1CCc1ccc2ccccc2c1
Activity (Danio rerio [6]): Active
Activity (Danio rerio [7]): Active
Activity (Danio rerio [8]): Active
Activity (Danio rerio [9]): Active
Activity (Danio rerio [10]): Active
